How the values were obtained:
[1] = molecular target: immunoproteasome LMP7/B5i subunit (Homo sapiens, UniProt P28062); assay: Caliper-based proteasome enzymatic activity assay, LMP7; format: biochemical; details: human recombinant immunoproteasome 0.3 nM, FAM-labeled peptide substrate 1 μM, rt 3 h; read-out: LMP7 subunit IC50
[2] = molecular target: constitutive proteasome β5c unit (Homo sapiens, UniProt P28074); assay: Caliper-based proteasome enzymatic activity assay, β5c; format: biochemical; details: human recombinant constitutive proteasome 0.3 nM, FAM-labeled peptide substrate 1 μM, rt 3 h; read-out: β5c subunit IC50
PBMC/LMP7 = PBMC/LMP7 (Homo sapiens, UniProt P28062); assay: Proteasome-Glo inhibition of proteasome activity in cells, PBMC/LMP7; format: cell-based; details: 2 h incubation at 37° C.
Experimental: The cell-based effects of a compound described herein on the immunoproteasome were determined by measuring inhibition of proteasome activity in cells using the Proteasome-Glo™ Cell-Based Reagent (Promega, Madison WI). The Proteasome-Glo™ assay contains a specific luminogenic proteasome substrate in a buffer optimized for cell permeabilization, proteasome activity, and luciferase activity. For the chymotrypsin-like activity (LMP7 and β5c), the peptide substrate is Suc-LLVY-aminoluciferin (Succinyl-leucine-leucine-valine-tyrosine-aminoluciferin). Cleavage of the substrate by proteasome results in luminescent signal which is proportional to the proteasome activity. The cell line THP-1 (a monocytic leukemia cell line enriched in immunoproteasome), the cell line HT-29 (a colorectal adenocarcinoma cell line enriched in constitutive proteasome), and primary human peripheral blood mononuclear cells (PBMC) were used to assess proteasome activity. Cells were seeded in a 96-well plate at 10,000 cells per well in RPMI 1640 high glucose medium with 10% fetal bovine scrum (FBS). Compound dilutions were added to cells starting at a concentration of 5 uM and decreasing in tripling dilutions. The final DMSO concentration was 1%. The concentration range was adjusted as needed for compounds of different potencies. The cells treated with compounds were incubated for 2 h at 37° C. in 5% CO2. At the end of the 2 hour incubation period, cells were transferred to white 384 well assay plates. 20 uL of Proteasome-Glo™ Reagent was added to each well and incubated for 10 minutes at rt. The plate was read in the Analyst HT instrument (Molecular Devices, Sunnyvale, CA) using luminescence mode. The percent inhibition of activity was plotted as a function of log compound concentration. The IC50 was then calculated for each compound using Prism software from GraphPad Software Inc. (San Diego, CA).

[3] = molecular target: immunoproteasome LPM2/β1i subunit (Homo sapiens, UniProt P28065); assay: Caliper-based proteasome enzymatic activity assay, LMP2; format: biochemical; details: human recombinant immunoproteasome 0.3 nM, FAM-labeled peptide substrate 1 μM, rt 2 h

Structure (SMILES)	IC50 [1]	IC50 [2]	IC50 (PBMC/LMP7)	IC50 [3]
CC(=O)N[C@@H](CCCCNC(=O)C(C#N)=CC(C)C)C(=O)N[C@@H](Cc1ccccc1)B(O)O [Example 11, ((R)-1-((S)-2-acetamido-6-(2-cyano-4-methylpent-2-enamido)hexanamido)-2-phenylethyl)boronic acid]	0.0026 µM	0.004 µM	0.39 µM	–
CC(C)C=C(C#N)C(=O)N1CCCC[C@@H]1COC[C@H](NCC(F)(F)F)C(=O)N[C@@H](Cc1ccccc1)B(O)O [Example 25, ((R)-1-((S)-3-(((R)-1-(2-cyano-4-methylpent-2-enoyl)piperidin-2-yl)methoxy)-2-((2,2,2-trifluoroethyl)amino)propanamido)-2-phenylethyl)boronic acid]	0.01 µM	0.411 µM	0.028 µM	0.701 µM
N#CC(=CC1CC1)C(=O)N1CCC[C@@H]1COC[C@H](NCC(F)(F)F)C(=O)N[C@@H](Cc1ccccc1)B(O)O [Example 22, (R)-1-((S)-3-(((R)-1-(2-cyano-3-cyclopropylacryloyl)pyrrolidin-2-yl)methoxy)-2-(2,2,2-trifluoroethylamino)propanamido)-2-phenylethylboronic acid]	0.022 µM	0.308 µM	0.039 µM	–
CC(C)C=C(C#N)C(=O)NCCCC[C@H](NC(=O)c1cnccn1)C(=O)N[C@@H](CC(C)C)B(O)O [Example 2, ((R)-1-((S)-6-(2-cyano-4-methylpent-2-enamido)-2-(pyrazine-2-carboxamido)hexanamido)-3-methylbutyl)boronic acid]	0.0128 µM	0.0085 µM	–	0.0463 µM
CC(C)(C)C=C(C#N)C(=O)N1CCC[C@H]1CNC(=O)N[C@@H](Cc1ccccc1)B(O)O [Example 39, ((R)-1-(3-(((S)-1-(2-cyano-4,4-dimethylpent-2-enoyl)pyrrolidin-2-yl)methyl)ureido)-2-phenylethyl)boronic acid]	0.0788 µM	> 5 µM	–	> 5 µM
C=CC(=O)N1CCCC[C@H]1CNC(=O)N[C@@H](Cc1ccccc1)B(O)O [Example 38, ((R)-1-(3-(((S)-1-acryloylpiperidin-2-yl)methyl)ureido)-2-phenylethyl)boronic acid]	> 5 µM	> 5 µM	–	> 5 µM
Cc1ccc(C[C@H](NC(=O)OC[C@H]2CCCN(C(=O)C(C#N)=CC(C)(C)C)C2)B(O)O)cc1 [Example 44, ((R)-1-(((((S)-1-(2-cyano-4,4-dimethylpent-2-enoyl)piperidin-3-yl)methoxy)carbonyl)amino)-2-(p-tolyl)ethyl)boronic acid]	0.0022 µM	2.85 µM	–	> 5 µM
CC(C)C=C(C#N)C(=O)N1CCCC[C@H]1CNC(=O)N[C@@H](Cc1ccccc1)B(O)O [Example 35, ((R)-1-(3-(((S)-1-(2-cyano-4-methylpent-2-enoyl)piperidin-2-yl)methyl)ureido)-2-phenylethyl)boronic acid]	0.611 µM	> 5 µM	–	> 5 µM
CC(C)(C=C(C#N)C(=O)N1CCC[C@@H]1CNC(=O)N[C@@H](Cc1coc2ccccc12)B(O)O)N1CCN(C2COC2)CC1 [Example 48, ((R)-2-(benzofuran-3-yl)-1-(3-(((R)-1-(2-cyano-4-methyl-4-(4-(oxetan-3-yl)piperazin-1-yl)pent-2-enoyl)pyrrolidin-2-yl)methyl)ureido)ethyl)boronic acid]	0.0087 µM	0.383 µM	–	3.74 µM
CC(C)(C=C(C#N)C(=O)N1CCC[C@H](OC(=O)N[C@@H](Cc2ccc(F)cc2)B(O)O)C1)N1CCC(F)(F)C1 [Example 78, ((R)-1-(((((S)-1-(2-cyano-4-(3,3-difluoropyrrolidin-1-yl)-4-methylpent-2-enoyl)piperidin-3-yl)oxy)carbonyl)amino)-2-(4-fluorophenyl)ethyl)boronic acid]	0.0023 µM	0.501 µM	–	> 5 µM
CC(C)C=C(C#N)C(=O)N1CCCC[C@@H]1CNC(=O)N[C@@H](Cc1ccccc1)B(O)O [Example 33, ((R)-1-(3-(((R)-1-(2-cyano-4-methylpent-2-enoyl)piperidin-2-yl)methyl)ureido)-2-phenylethyl)boronic acid]	> 5 µM	> 5 µM	–	> 5 µM
C=CC(=O)N1CCC[C@@H]1CNC(=O)N[C@@H](Cc1ccccc1)B(O)O [Example 36, ((R)-1-(3-(((R)-1-acryloylpyrrolidin-2-yl)methyl)ureido)-2-phenylethyl)boronic acid]	1.14 µM	> 5 µM	–	> 5 µM
CC(C)C=C(C#N)C(=O)N1CCC[C@@H]1CNC(=O)N[C@@H](Cc1ccccc1)B(O)O [Example 32, ((R)-1-(3-(((R)-1-(2-cyano-4-methylpent-2-enoyl)pyrrolidin-2-yl)methyl)ureido)-2-phenylethyl)boronic acid]	0.0372 µM	> 5 µM	0.11 µM	> 5 µM
CC(C)(C=C(C#N)C(=O)N1CCC[C@@H]1CNC(=O)N[C@@H](Cc1coc2ccccc12)B(O)O)N1CCOCC1 [Example 47, ((R)-2-(benzofuran-3-yl)-1-(3-(((R)—1(2-cyano-4-methyl-4-morpholinopent-2-enoyl)pyrrolidin-2-yl)methyl)ureido)ethyl)boronic acid]	0.0035 µM	1.9 µM	–	> 5 µM
CC(C)(C=C(C#N)C(=O)N1CCC[C@H](OC(=O)N[C@@H](Cc2coc3ccccc23)B(O)O)C1)N1CCC(F)(F)C1 [Example 73, ((R)-2-(benzofuran-3-yl)-1-(((((S)-1-(2-cyano-4-(3,3-difluoropyrrolidin-1-yl)-4-methylpent-2-enoyl)piperidin-3-yl)oxy)carbonyl)amino)ethyl)boronic acid]	0.0011 µM	0.0546 µM	–	> 5 µM
CC(C)(C)C=C(C#N)C(=O)N1CCCC[C@H]1CNC(=O)N[C@@H](Cc1ccccc1)B(O)O [Example 40, ((R)-1-(3-(((S)-1-(2-cyano-4,4-dimethylpent-2-enoyl)piperidin-2-yl)methyl)ureido)-2-phenylethyl)boronic acid]	0.669 µM	> 5 µM	–	> 5 µM
C=CC(=O)N1CC[C@H](OC(=O)N[C@@H](Cc2ccccc2)B(O)O)C1 [Example 88, ((R)-1-(((((S)-1-acryloylpyrrolidin-3-yl)oxy)carbonyl)amino)-2-phenylethyl)boronic acid]	0.113 µM	1.61 µM	–	1.86 µM
CC(C)C=C(C#N)C(=O)N1CCC[C@H]1CNC(=O)N[C@@H](Cc1ccccc1)B(O)O [Example 34, ((R)-1-(3-(((S)-1-(2-cyano-4-methylpent-2-enoyl)pyrrolidin-2-yl)methyl)ureido)-2-phenylethyl)boronic acid]	0.231 µM	> 5 µM	–	> 5 µM
C=CC(=O)N1CCC[C@@H]1CNC(=O)N[C@@H](Cc1coc2ccccc12)B(O)O [Example 41, ((R)-1-(3-(((R)-1-acryloylpyrrolidin-2-yl)methyl)ureido)-2-(benzofuran-3-yl)ethyl)boronic acid]	0.03 µM	> 5 µM	–	> 5 µM
CC(C)(C=C(C#N)C(=O)N1C2CCC1(COC(=O)N[C@@H](Cc1ccccc1)B(O)O)CC2)N1CCC(F)(F)C1 [Example 57, (R)-(1-((((7-(2-cyano-4-(3,3-difluoropyrrolidin-1-yl)-4-methylpent-2-enoyl)-7-azabicyclo[2.2.1]heptan-1-yl)methoxy)carbonyl)amino)-2-phenylethyl)boronic acid]	0.0026 µM	1.62 µM	–	3.19 µM
CC(C)C=C(C#N)C(=O)N(C)c1cccc(C[C@H](NC(=O)c2cnccn2)C(=O)N[C@@H](Cc2ccccc2)B(O)O)c1 [Example 21, ((R)-1-((S)-3-(3-(2-cyano-N,4-dimethylpent-2-enamido)phenyl)-2-(pyrazine-2-carboxamido)propanamido)-2-phenylethyl)boronic acid]	0.0025 µM	0.0211 µM	0.073 µM	–
Cc1ccc(C[C@H](NC(=O)OC[C@H]2CCN(C(=O)C(C#N)=CC(C)(C)C)C2)B(O)O)cc1 [Example 46, ((R)-1-(((((S)-1-(2-cyano-4,4-dimethylpent-2-enoyl)pyrrolidin-3-yl)methoxy)carbonyl)amino)-2-(p-tolyl)ethyl)boronic acid]	0.004 µM	1.69 µM	–	> 5 µM
